# According to patent publication US9518015B2, “EP1 receptor ligands” (LABORATORIOS DEL DR. ESTEVE, S.A., priority 2011, dated 2016):
# How the values were obtained:
# human EP1 receptor [1] = target: T1, human EP1 receptor (Homo sapiens, UniProt P34995); experiment: Test 3: Measurement of IP1 responses by HTRF, HEK-293 cells stably expressing human EP1 receptors incubated o/n, PGE2 10 nM; assay type: cell-based; parameters: expressed in transfected cells; details: for inhibition at 10 µM: HEK293, read-out: Results of Test 3 (Functional assay), % inh
# T1 sequence (P34995 1-402): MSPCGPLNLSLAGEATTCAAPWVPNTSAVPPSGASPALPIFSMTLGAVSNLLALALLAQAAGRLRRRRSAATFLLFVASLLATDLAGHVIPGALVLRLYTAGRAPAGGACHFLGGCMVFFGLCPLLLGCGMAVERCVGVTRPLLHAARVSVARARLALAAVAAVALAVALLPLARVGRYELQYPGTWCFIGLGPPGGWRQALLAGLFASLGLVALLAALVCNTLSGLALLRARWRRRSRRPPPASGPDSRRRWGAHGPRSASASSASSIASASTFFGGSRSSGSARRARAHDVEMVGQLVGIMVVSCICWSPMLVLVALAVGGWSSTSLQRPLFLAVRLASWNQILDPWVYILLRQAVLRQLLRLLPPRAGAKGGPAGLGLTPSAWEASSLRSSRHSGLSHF
# Method: Test 3: Measurement of IP1 Responses by Homogeneous Time Resolved Fluorescence
# IP1 measurements on HEK-293 cells that stably expressed human EP1 receptors were performed by using a system based on Homogeneous Time Resolved Fluorescense (HTRF) (Gabriel et al., 2003). This technology allows the direct measurement of IP1 in living cells. The principle of this assay is based on competition between IP1 produced by cells and IP1-d2 conjugate for the binding with monoclonal anti-IP1-cryptate conjugate. The HTRF IP1 kit from CisBio was used according to the manufacturer's directions. The experimental procedure was performed as stated below.
# 40,000 cells per well were added to 96-well culture plates in 40 μl of Optimem and incubated o/n at 37° C. Optimem was replaced by 40 μl of stimulation buffer (supplied by the kit) and compounds were then added in 20 μl of stimulation buffer and incubated at 37° C. for 15 minutes followed by 10 μl of PGE2 to a final concentration of 10 nM. After 90 minutes at 37° C., the reaction was stopped lysing the cells with a mixture of 15 μl of cryptate and 15 μl of IP1-d2 prepared in the lysis buffer supplied by the manufacturer. Plates were incubated for an additional hour at room temperature and read at 665 nm/620 nm using an UltraEvolution Plate reader (Tecan).
# Antagonist percentage inhibition was calculated relating compounds activity to the 0% inhibition of the wells incubated with 10 nM PGE2 alone and 100% inhibition of the wells incubated with 10 nM PGE2 plus 10 μM of the reference antagonist.
# human EP1 receptor [2] = target: T1, human EP1 receptor; experiment: Test 1: Human EP1 receptor radioligand binding assay ([3H]-PGE2, transfected HEK-293 cell membranes); parameters: expressed in transfected cells; host or cells: HEK-293 cell membranes; details: for inhibition at 10 µM: read-out: Results of Test 1 (Binding assay), % inh
# In short: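 Membranes from transfected HEK-293 cells (30 μg protein) incubated with 10 nM [3H]-PGE2 in pH 6.0 MES buffer for 60 min at 25° C., then filtered and counted by scintillation. Percent inhibition set against total binding and 10 μM PGE2 non-specific binding.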
inhibition at 10 µM (human EP1 receptor [1]),inhibition at 10 µM (human EP1 receptor [2]),"Results of Test 3 (Functional assay), % inh (human EP1 receptor [1]; at 10 μM)","Results of Test 1 (Binding assay), % inh (human EP1 receptor [2]; at 10 μM)",SMILES
> 75%,> 75%,,,O=C(O)c1cncc2c1CCCN2Cc1cc(Cl)ccc1OCc1ccc(F)cc1F [Example 227]
> 75%,> 75%,,,"O=C(O)c1cccc2c1CC(=O)N2Cc1cc(Cl)ccc1OCc1ccc(Cl)cc1F [Example 208, sodium 1-(5-chloro-2-(4-chloro-2-fluorobenzyloxy)benzyl)-2-oxoindoline-4-carboxylate]"
> 75%,> 75%,,,O=C(O)c1ccnc2c1c(CO)cn2Cc1cc(Cl)ccc1OCc1ccc(F)cc1F [Example 152]
,,$ (% inh > 75),# (% inh > 75),O=C([O-])c1ccnc2c1CCN2Cc1cc(Cl)ccc1OCc1ccc(F)cc1F.[Na+] [Example 217]
